Source: paper PMC4979060, “Structural basis of metallo-β-lactamase, serine-β-lactamase and penicillin-binding protein inhibition by cyclic boronates” (Nature Communications, 2016)

Assays:
[1] = test system: HEK293 cells; assay: Cytotoxicity assay (MTS); type: cell-based; settings: human HEK293 cells, concentrations up to 100 μM, 24 h
Procedure: HEK293 cells were seeded (2,000 per well) in normal DMEM in 96-well plates.[34] After 24 h, wells were dosed with titrated concentration of compounds in 1% dimethyl sulphoxide (DMSO)—final volume of media about 100 μl. Following a further 24 h incubation period, 20 μl tetrazolium (MTS, CellTiter96Aqueous One Solution (Promega)) was added to the media in each well. The plate was incubated at 37 °C, 5% CO2 for 4 h in the dark before absorbance was read at 490 nm to determine cell proliferation values.

[2] = test system: K. pneumoniae NCTC 5055; assay: MIC by broth microdilution; type: cell-based; settings: data not shown
Text: (§1) Bacterial strains: E. coli ATCC 25922 (ref. [35]) and K. pneumoniae NCTC 5055 (ref. [36]) were used as reference strains. K. pneumoniae Ecl8 (ref. [16]) and its ramR knock-out[37] were used as previously described. K. pneumoniae strain IR8 (ref. [40]), and E. coli strains IR10 and IR60 (ref. [17]) were generous gifts of Prof. T.R. Walsh. Plasmid pSU18:NDM-1 contains the complete blaNDM-1 open reading frame, together with its promoter, cloned into plasmid pSU18 (ref. [41]). The recombinant plasmid was made by PCR amplifying the blaNDM-1 gene and surrounding sequences from E. coli IR10 with primers NDM1F 5′- […] -3′ and NDM1R 5′- GGCGATGACAGCATCATC -3′, TA cloning the amplicon into pCR2.1 TOPO (Invitrogen) and subcloning into pSU18 using BamHI and XbaI.
(§2) MIC values were determined by broth microdilution, in triplicate, in cation-adjusted Mueller Hinton broth (Sigma) according to the Clinical Laboratory Standards Institute (CLSI) guidelines. Experiments were carried out in microtitre plates (Corning) containing the medium plus meropenem (Sequoia Research Products, Pangbourne, UK) and/or inhibitor 2 as appropriate. Chloramphenicol (20 μg ml^−1) was included in assays of strains (K. pneumoniae Ecl8 and derivative) that carried pSU18 plasmids or derivatives (pSU18:NDM-1) to ensure maintenance of plasmids throughout. Inhibitor 2 was dissolved in DMSO to 100 mg ml^−1 and diluted in broth. The final concentration of DMSO in the assays was kept constant at 0.01% (experiments using 10 μg ml^−1 inhibitor) or 0.03% (experiments using 25 μg ml^−1 inhibitor). Plates were incubated overnight at 37 °C for 18–24 h and absorbance at 600 nm read using a Polarstar Omega (BMG LabTech) plate reader.

[3] = test system: E. coli ATCC 25922; assay: MIC by broth microdilution; type: cell-based; settings: data not shown
Text: as §1, §2

[4] = test system: E. coli IR10; assay: MIC by broth microdilution; type: cell-based; settings: Escherichia coli, IR10, read-out: 2 MIC
Text: as §1, §2

[5] = test system: E. coli IR60; assay: MIC by broth microdilution; type: cell-based; settings: Escherichia coli, IR60, read-out: 2 MIC
Text: as §1, §2

[6] = test system: K pneumoniae Ecl8 ΔramR pSU18:NDM-1; assay: MIC by broth microdilution; type: cell-based; settings: Klebsiella pneumoniae, read-out: 2 MIC, 2 alone; Ecl8 ΔramR pSU18:NDM-1 (blaSHV-1; blaNDM-1)
Text: as §1, §2

[7] = test system: K pneumoniae Ecl8 ΔramR pSU18; assay: MIC by broth microdilution; type: cell-based; settings: Klebsiella pneumoniae, read-out: 2 MIC
Text: as §1, §2

[8] = test system: K. pneumoniae Ecl8 pSU18; assay: MIC by broth microdilution; type: cell-based; settings: Klebsiella pneumoniae, ECL8PSU18, read-out: 2 MIC
Text: as §1, §2

[9] = target: SPM-1 (Pseudomonas aeruginosa, UniProt Q8G9Q0); assay: Fluorogenic β-lactamase inhibition assay (FC-5 substrate), SPM-1; type: biochemical
Procedure: (§3) Kinetic and inhibition analyses, and ^19F NMR studies[10] against bacterial β-lactamases were performed as described. The FC-5 cephalosporin[9] was used as substrate for BcII, VIM-2, IMP-1, NDM-1, SPM-1, TEM-1 and OXA-10, meropenem[28] for CphA and nitrocefin[34] for PBP 3 and PBP 5.
(§4) In brief IC50 values were determined by preincubation of the appropriate amount of enzyme with the cyclic boronates in the assay buffers for 10 min at room temperature prior to the initiation of the assay by the addition of the appropriate substrate. The enzyme concentrations used are the following: 1 nM BcII, 100 nM VIM-2, 10 nM IMP-1, 10 nM NDM-1, 1 nM SPM-1, 1 nM TEM-1, 1 nM OXA-10, 2.5 nM CphA, 4 μM PBP 3 and 5 μM PBP 5; note that the final concentrations are stated. The assay buffers used are the following: 50 mM HEPES, pH 7.2 supplemented with 1 μg BSA, 1 μg ZnSO4 and 0.01% Triton for BcII, VIM-2, IMP-1, NDM-1 and SPM-1, 15 mM MES, pH 6.5 for CphA, 50 mM HEPES, pH 7.2 supplemented with 200 mM NaCl and 0.01% Triton 100 for TEM-1, 100 mM sodium phosphate, pH 7.2 supplemented with 50 mM NaHCO3 and 0.01% Triton 100 for OXA-10 and 50 mM HEPES, pH 7.2 supplemented with 200 mM NaCl and 0.01% Triton 100 for PBP 3 and PBP 5. The amount of substrates used is the following: 5 μM for BcII, VIM-2, IMP-1, NDM-1 and SPM-1, 10 μM for TEM-1 and OXA-10, 125 μM for CphA and 25 μM for PBP 3 and PBP 5; note that the final concentrations are stated.
(§5) The experiments were performed using a PHERAstar FS microplate reader (BMG Labtech) at room temperature (24–25 °C). All enzymes and inhibitors were prepared in the specific assay buffer. The kinetic values in this study are the means from at least three independent measurements; at least nine different concentrations of the inhibitor were used to determine the kinetic parameters (IC50). The IC50 values were determined using the software package Graph Prism 5.

[10] = target: T1, PBP 3 (Pseudomonas aeruginosa, UniProt G3XD46); assay: PBP inhibition assay (nitrocefin substrate), PBP 3; type: biochemical; settings: NI = no inhibition at 100 μM, read-out: IC50 (μM)/pIC50 (converted)
T1 construct: made in house; host or cells: E. coli
Procedure: as §3, §4, §5

[11] = target: T2, OXA-10 (Pseudomonas aeruginosa, UniProt P14489); assay: Fluorogenic β-lactamase inhibition assay (FC-5 substrate), OXA-10; type: biochemical
T2 construct: made in house; host or cells: E. coli
Procedure: as §3, §4, §5

[12] = target: T3, BcII (Bacillus cereus, UniProt P04190); assay: Fluorogenic β-lactamase inhibition assay (FC-5 substrate), BcII; type: biochemical
T3 construct: made in house; host or cells: E. coli
Procedure: as §3, §4, §5

[13] = test system: K. pneumoniae Ecl8 pSU18:NDM-1; assay: MIC by broth microdilution and checkerboard; type: cell-based; settings: Klebsiella pneumoniae, read-out: 2 MIC, 2 alone; Ecl8 pSU18:NDM-1 (blaSHV-1; blaNDM-1)
Text: as §1, §2

T3 sequence (P04190 31-257): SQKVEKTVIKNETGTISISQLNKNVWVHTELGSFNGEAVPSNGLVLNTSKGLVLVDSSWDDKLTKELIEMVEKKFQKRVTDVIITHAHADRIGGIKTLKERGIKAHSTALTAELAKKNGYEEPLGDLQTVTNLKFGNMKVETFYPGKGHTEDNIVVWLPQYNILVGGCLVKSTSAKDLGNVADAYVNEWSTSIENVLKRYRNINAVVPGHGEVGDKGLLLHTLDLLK
SPM-1, sequence (Q8G9Q0 entry or part of it): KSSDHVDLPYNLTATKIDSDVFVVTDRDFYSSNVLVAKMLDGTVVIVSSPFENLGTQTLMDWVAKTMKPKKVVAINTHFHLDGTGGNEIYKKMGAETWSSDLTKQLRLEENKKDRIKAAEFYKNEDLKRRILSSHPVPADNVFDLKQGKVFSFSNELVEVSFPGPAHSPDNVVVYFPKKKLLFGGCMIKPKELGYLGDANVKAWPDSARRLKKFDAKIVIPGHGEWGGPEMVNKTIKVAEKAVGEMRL
T2 sequence (P14489 20-266, species assumed): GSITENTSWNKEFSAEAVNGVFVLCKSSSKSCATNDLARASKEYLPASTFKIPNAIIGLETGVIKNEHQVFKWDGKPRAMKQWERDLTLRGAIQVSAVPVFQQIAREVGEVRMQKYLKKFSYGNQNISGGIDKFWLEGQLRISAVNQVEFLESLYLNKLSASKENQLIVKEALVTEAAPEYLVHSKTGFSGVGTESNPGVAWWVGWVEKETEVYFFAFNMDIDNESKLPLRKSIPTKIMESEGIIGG
T1 sequence (G3XD46 whole entry): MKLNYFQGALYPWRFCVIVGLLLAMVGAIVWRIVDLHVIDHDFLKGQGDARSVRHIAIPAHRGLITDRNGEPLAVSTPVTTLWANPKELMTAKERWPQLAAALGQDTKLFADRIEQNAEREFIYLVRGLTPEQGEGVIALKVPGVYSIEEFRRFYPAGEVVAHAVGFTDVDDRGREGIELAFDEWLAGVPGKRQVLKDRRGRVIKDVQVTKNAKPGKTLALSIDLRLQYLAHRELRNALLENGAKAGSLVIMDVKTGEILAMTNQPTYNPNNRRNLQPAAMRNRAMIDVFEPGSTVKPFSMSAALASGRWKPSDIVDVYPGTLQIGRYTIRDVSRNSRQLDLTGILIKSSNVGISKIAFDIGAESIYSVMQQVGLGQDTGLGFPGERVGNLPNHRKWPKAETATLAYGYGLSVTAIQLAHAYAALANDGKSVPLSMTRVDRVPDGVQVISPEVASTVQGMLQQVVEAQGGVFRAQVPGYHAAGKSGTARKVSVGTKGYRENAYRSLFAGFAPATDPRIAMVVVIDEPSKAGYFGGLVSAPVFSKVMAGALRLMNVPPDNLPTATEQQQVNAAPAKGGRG

In the case of `NCc1ccc(C(=O)N[C@H]2Cc3cccc(C(=O)O)c3O[B-]2(O)O)cc1` [compound 2], the cytotoxicity [1] is reported as “Neither 1 nor 2 showed cytotoxicity”, the “antibacterial activity of 2 alone (highest concentration without activity)” value [2] is reported as over 128 µg/mL and the “antibacterial activity of 2 alone (highest concentration without activity)” value [3] is reported as over 128 µg/mL. It also gave an MIC [4] of over 128 µg/mL, an MIC [5] of over 128 µg/mL and an MIC [6] of over 128 µg/mL. For the same compound, the MIC [7] was over 128 µg/mL, the MIC [8] was over 128 µg/mL and the pIC50 [9] was 4.7. It also gave an IC50 ([9]; 10 min preincubation) of 16.7 µM, an IC50 [10] of over 100 µM and a pIC50 [11] of 5.2. The IC50 ([11]; 10 min preincubation) was 5.1 µM, the pIC50 [12] was 6.5 and the IC50 ([12]; 10 min preincubation) was 0.3 µM. The MIC [13] was over 128 µg/mL.
